These are literature values, as cited in US20130115640A1, “ACTH for Treatment of Kidney Disease” (priority 2011, published 2013).

In this series the test system is TGF-β. As to conditions: Losartan 50 mg, 4 weeks, type II diabetes and microalbuminuria.

As for `CCCCc1nc(Cl)c(CO)n1Cc1ccc(-c2ccccc2-c2nn[nH]n2)cc1` [Losartan], the “plasma TGF-β levels” value is reported as “not altered” and the “urinary TGF-β levels” value is “significantly reduced”.
